Measurements published in patent US7465730B2, “Treatment of neuropathic pain with 6H-pyrrolo[3,4-d]pyridazine compounds” (Merck & Co. Inc., priority 2002, dated 2008).

Tested on: nerve injury-induced tactile allodynia
Test: Spinal nerve ligation model (Chung model) of neuropathic pain
Type: in vivo, Male Sprague Dawley rats
Details: rat
Source text: The spinal nerve ligation model of neuropathic pain was used to assess the effects of test compounds on nerve injury-induced tactile allodynia (S. H. Kim and J. M. Chung, Pain 50:355-363(1992)). Male Sprague Dawley rats (175-200 g) received unilateral tight ligation of the left L5/L6 spinal nerves distal to the dorsal root ganglion using 4-0 silk suture. Behavioral-nociceptive testing occurred 7-14 days following spinal nerve ligation by placing the rats in chambers on a wire mesh. Rats were tested for tactile allodynia (decreased hindpaw withdrawal threshold to non-noxious punctate stimulation) by applying a series of calibrated von Frey filaments to the plantar aspect of the left hindpaw ipsilateral to the site of nerve injury. The mean 50% hindpaw withdrawal threshold (g.) was determined using the Dixon “up-down” non-parametric test (Chaplan et al., J. Neurosci. Methods, 53:55-63(1994)). […] Following determination of pre-drug withdrawal thresholds, rats received either an i.p. or p.o. injection of test compound. The effect of the test compound on tactile allodynia was determined over time by measuring hindpaw withdrawal thresholds 30, 60, 90, 120 min post-injection. In above model, EXAMPLE 1 produced a 65% effect after i.p. dosing at 30 mg/kg, EXAMPLE 50 produced a 100% effect after i.p. dosing at 20 mg/kg, EXAMPLE 115 produced a 60% effect after i.p. dosing at 30 mg/kg i.p.

SMILES | effect on tactile allodynia (hindpaw withdrawal threshold) (i.p. dosing at 30 mg/kg) | effect on tactile allodynia (hindpaw withdrawal threshold) (i.p. dosing at 20 mg/kg)
CCOc1ccc(-n2c(C)c3c(C)nnc(-c4ccc(OC)cc4)c3c2C)cc1 [EXAMPLE 1, 6-(4-ethoxyphenyl)-1-(4-methoxyphenyl)-4,5,7-trimethyl-6H-pyrrolo[3,4-d]pyridazine] | 65% | 
CCOc1ccc(-n2c(C)c3c(C)nnc(NC4CCc5ccccc54)c3c2C)c(OC)c1 (stereo not drawn) [EXAMPLE 115, N-(2,3-dihydro-1H-inden-1-yl)-6-(4-ethoxy-2-methoxyphenyl)-4,5,7-trimethyl-6H-pyrrolo[3,4-d]pyridazin-1-amine] | 60% | 
CCOc1ccc(-n2c(C)c3c(C)nnc(C)c3c2C)cc1 [EXAMPLE 50, 6-(4-ethoxyphenyl)-1,4,5,7-tetramethyl-6H-pyrrolo[3,4-d]pyridazine] |  | 100%
